Legend:
[1] = molecular target: T1, His-TEV-DYRK1A Kinase domain (aa127-485) (Homo sapiens, UniProt Q13627); assay: Kinase ADP assay (ADP Hunter), DYRK1A kinase domain; format: biochemical; conditions: 20 μM ATP
T1 construct: His-TEV-DYRK1A Kinase domain (aa127-485); His tag (N); TEV protease cleavage site (N)
Procedure, shortened: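 Compounds incubated 10 min at 30 °C with 20 nM enzyme, 40 μM peptide substrate and 20 μM ATP in pH 7.4 Hepes buffer with 10 mM MgCl2. ADP formed detected by ADP Hunter Plus reagents after 20 min at 30 °C, fluorescence read at 590 nm.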

DYRK1B = molecular target: T2, DYRK1B (Homo sapiens, UniProt Q9Y463); assay: Kinase TR-FRET assay, DYRK1B; format: biochemical; conditions: full-length human kinase, 10 μM ATP
T2 construct: full-length human kinases from Carna Biosciences; purchased Carna Biosciences 04-131
Experimental: Inhibition of the enzymatic activity of human kinases was evaluated in a Time-Resolved Fluorescence Resonance Energy Transfer (TR-FRET) assay in 384-well reaction plates. […] Test compounds of the invention were added in reaction buffer at a range of concentrations from 0.1 nM to 30 μM. Following addition of EDTA (Sigma E7889, 10 mM) to stop the reaction, Europium-labelled mouse monoclonal antibody recognizing phospho-Thr232 in MBP (Perkin Elmer TRF0201, 1 nM) was added.

CDK9 = molecular target: T3, CDK9 (Homo sapiens, UniProt P50750); assay: Kinase TR-FRET assay, CDK9; format: biochemical; conditions: full-length human kinase, 10 μM ATP
T3 construct: full-length human kinases from Carna Biosciences; purchased Carna Biosciences 04-110
Experimental: Inhibition of the enzymatic activity of human kinases was evaluated in a Time-Resolved Fluorescence Resonance Energy Transfer (TR-FRET) assay in 384-well reaction plates. In this assay, full-length human kinases from Carna Biosciences—DYRK1A (NM_001396, ref. 04-130; 2.0 ng/μl), DYRK1B (NM_004714, ref. 04-131; 1.2 ng/p), CLK1 (NM_001162407, ref. 04-126; 0.7 ng/μl), CDK9 (NM_001261, ref. 04-110; 0.9 ng/μl), or GSK3β (NM_001146156, ref. 04-141; 2.0 ng/μl—were incubated for 40 minutes (DYRK1A and DYRK1B) or 100 minutes (CLK1, CDK9 and GSK3β) at room temperature with ATP (Sigma A2383, 10 μM) and a ULight™-labelled human Myelin Basic Protein (MBP) peptide substrate (Perkin Elmer TRF0109, 100 nM) in a reaction buffer composed of 50 mM HEPES pH7.4, 1 mM EGTA, 10 mM MgCl2, 2 mM DTT and 0.01% Tween20. Test compounds of the invention were added in reaction buffer at a range of concentrations from 0.1 nM to 30 μM. Following addition of EDTA (Sigma E7889, 10 mM) to stop the reaction, Europium-labelled mouse monoclonal antibody recognizing phospho-Thr232 in MBP (Perkin Elmer TRF0201, 1 nM) was added. After one hour, the reaction plates were read using a fluorescence reader (EnVision®, Perkin Elmer) at 620 nm and 665 nm (excitation at 340 nm); when the Europium donor fluorophore is excited by light at 340 nm, an energy transfer (620 nm) to the acceptor occurs, which will then emit light at 665 nm.

DYRK1A [2] = molecular target: T4, DYRK1A (Homo sapiens, UniProt Q13627); assay: Kinase TR-FRET assay, DYRK1A; format: biochemical; parameters: full-length, wild-type human DYRK1A (NM_001396) with an HA tag; expressed in transfected cells; host or cells: human U2-OS osteosarcoma cells, transient transfection of a pcDNA3.1 plasmid; conditions: full-length human kinase, 10 μM ATP
Procedure, shortened: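 Compounds tested at 0.1 nM to 30 μM in reaction buffer; reaction stopped with 10 mM EDTA. Phosphorylated MBP detected with 1 nM Europium-labelled anti-phospho-Thr232 antibody by TR-FRET.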

DYRK1A [3] = molecular target: T4, DYRK1A; assay: Cellular DYRK1 autophosphorylation assay in U2-OS cells; format: cell-based; parameters: full-length, wild-type human DYRK1A (NM_001396) with an HA tag; expressed in transfected cells; host or cells: human U2-OS osteosarcoma cells, transient transfection of a pcDNA3.1 plasmid; conditions: U2-OS cells transfected with HA-tagged human DYRK1A, 5 hours exposure; read-out: IC50 (μM) P-Ser520-Dyrk1A -Cell assay
Procedure, shortened: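 U2-OS cells treated with a compound concentration range for 5 h. Phospho-Ser520-DYRK1A measured by western blot densitometry or Mesoscale ELISA. IC50 from dose-response curves; for blots, ratio of phospho-Ser520 to total DYRK1A signal.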

T2 sequence (Q9Y463 whole entry): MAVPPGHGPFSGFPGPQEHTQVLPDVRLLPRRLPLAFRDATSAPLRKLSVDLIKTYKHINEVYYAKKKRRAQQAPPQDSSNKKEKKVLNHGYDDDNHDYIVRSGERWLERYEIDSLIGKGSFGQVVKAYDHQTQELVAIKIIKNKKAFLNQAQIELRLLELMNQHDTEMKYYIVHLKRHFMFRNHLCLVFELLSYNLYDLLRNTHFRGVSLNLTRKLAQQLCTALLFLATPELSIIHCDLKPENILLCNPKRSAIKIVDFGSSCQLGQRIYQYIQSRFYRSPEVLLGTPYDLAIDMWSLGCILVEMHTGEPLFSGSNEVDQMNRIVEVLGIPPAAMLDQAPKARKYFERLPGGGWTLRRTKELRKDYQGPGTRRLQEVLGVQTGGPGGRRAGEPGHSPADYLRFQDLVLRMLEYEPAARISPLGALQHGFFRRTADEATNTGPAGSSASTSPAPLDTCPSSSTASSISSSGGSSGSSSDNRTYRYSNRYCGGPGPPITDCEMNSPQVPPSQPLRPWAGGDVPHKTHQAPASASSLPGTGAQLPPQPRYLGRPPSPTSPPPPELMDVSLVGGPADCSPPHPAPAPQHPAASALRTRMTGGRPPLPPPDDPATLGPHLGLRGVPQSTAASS
T3 sequence (P50750 whole entry): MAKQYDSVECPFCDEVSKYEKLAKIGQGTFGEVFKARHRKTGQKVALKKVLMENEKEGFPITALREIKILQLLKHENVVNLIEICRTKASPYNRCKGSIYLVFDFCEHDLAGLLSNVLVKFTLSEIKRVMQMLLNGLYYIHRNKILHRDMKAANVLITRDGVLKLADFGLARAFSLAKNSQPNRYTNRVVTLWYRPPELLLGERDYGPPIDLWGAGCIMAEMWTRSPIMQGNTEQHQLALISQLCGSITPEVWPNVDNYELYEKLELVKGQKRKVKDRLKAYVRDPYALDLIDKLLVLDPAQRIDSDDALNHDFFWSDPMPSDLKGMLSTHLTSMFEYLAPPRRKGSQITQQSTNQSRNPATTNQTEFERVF
T3 sequence (O60563 whole entry partner): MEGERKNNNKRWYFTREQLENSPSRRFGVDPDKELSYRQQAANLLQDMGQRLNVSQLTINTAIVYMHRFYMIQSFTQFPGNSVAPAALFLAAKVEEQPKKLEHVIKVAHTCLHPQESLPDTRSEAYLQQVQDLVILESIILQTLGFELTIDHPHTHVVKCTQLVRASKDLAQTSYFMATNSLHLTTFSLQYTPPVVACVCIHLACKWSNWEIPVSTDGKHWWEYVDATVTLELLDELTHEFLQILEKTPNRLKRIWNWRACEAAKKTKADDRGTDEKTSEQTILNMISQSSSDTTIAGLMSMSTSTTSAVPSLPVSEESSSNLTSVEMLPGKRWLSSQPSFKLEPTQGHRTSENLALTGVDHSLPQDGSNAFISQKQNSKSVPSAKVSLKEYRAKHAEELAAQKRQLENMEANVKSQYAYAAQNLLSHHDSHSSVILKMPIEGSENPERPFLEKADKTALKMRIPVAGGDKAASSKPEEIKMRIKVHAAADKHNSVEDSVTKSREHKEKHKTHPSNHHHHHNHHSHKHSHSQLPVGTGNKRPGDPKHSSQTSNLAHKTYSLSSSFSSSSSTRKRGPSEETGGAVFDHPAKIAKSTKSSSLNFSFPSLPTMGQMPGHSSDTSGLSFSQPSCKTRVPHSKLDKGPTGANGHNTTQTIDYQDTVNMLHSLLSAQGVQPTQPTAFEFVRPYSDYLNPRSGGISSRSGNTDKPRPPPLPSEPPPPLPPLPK

Compound: Cc1nc2ccc(-c3cc(N)nc(N)c3)nc2n1C1CCCC1 [Example 1, 4-(3-cyclopentyl-2-methyl-3H-imidazo[4,5-b]pyridin-5-yl)pyridine-2,6-diamine]
- IC50 [1]: 0.01 µM
- IC50 (DYRK1B): 0.004 µM
- IC50 (CDK9): 0.314 µM
- IC50 (DYRK1A [2]): 0.013 µM
- IC50 (DYRK1A [3]): 0.08 µM

Compound: CCCn1c(C)nc2ccc(-c3cc(N)nc(N)c3)nc21 [Example 2, 4-(2-methyl-3-propyl-3H-imidazo[4,5-b]pyridin-5-yl)pyridine-2,6-diamine]
- IC50 [1]: 0.01 µM
- IC50 (DYRK1B): 0.001 µM
- IC50 (CDK9): 0.383 µM
- IC50 (DYRK1A [2]): 0.008 µM
- IC50 (DYRK1A [3]): 0.2 µM

Compound: Cc1nc2ccc(-c3cc(N)nc(N)c3)nc2n1CCC1CCCCC1 [Example 15, 4-[3-(2-cyclohexylethyl)-2-methyl-3H-imidazo[4,5-b]pyridin-5-yl]pyridine-2,6-diamine]
- IC50 [1]: 0.011 µM
- IC50 (DYRK1B): 0.008 µM
- IC50 (CDK9): 0.47 µM
- IC50 (DYRK1A [2]): 0.004 µM
- IC50 (DYRK1A [3]): 0.11 µM

Compound: Cc1nc2ccc(-c3cc(N)nc(N)c3)nc2n1CCc1ccco1 [Example 19, 4-{3-[2-(furan-2-yl)ethyl]-2-methyl-3H-imidazo[4,5-b]pyridin-5-yl}pyridine-2,6-diamine]
- IC50 [1]: 0.012 µM
- IC50 (DYRK1B): 0.003 µM
- IC50 (CDK9): 1.95 µM
- IC50 (DYRK1A [2]): 0.003 µM
- IC50 (DYRK1A [3]): 0.226 µM

Compound: Cc1nc2ccc(-c3cc(N)nc(N)c3)nc2n1C(C)(C)C [Example 25, 4-(3-tert-butyl-2-methyl-3H-imidazo[4,5-b]pyridin-5-yl)pyridine-2,6-diamine]
- IC50 [1]: 0.01 µM
- IC50 (DYRK1B): 0.006 µM
- IC50 (CDK9): 1.84 µM
- IC50 (DYRK1A [2]): 0.007 µM
- IC50 (DYRK1A [3]): 0.228 µM

Compound: Cc1nc2ccc(-c3cc(N)nc(N)c3)nc2n1CCc1ccsc1 [Example 29, 4-{2-methyl-3-[2-(thiophen-3-yl)ethyl]-3H-imidazo[4,5-b]pyridin-5-yl}pyridine-2,6-diamine]
- IC50 [1]: 0.011 µM
- IC50 (DYRK1B): 0.011 µM
- IC50 (CDK9): 3.44 µM
- IC50 (DYRK1A [2]): 0.004 µM
- IC50 (DYRK1A [3]): 0.057 µM

Compound: Cc1nc2ccc(-c3cc(N)nc(N)c3)nc2n1CC(C)C [Example 31, 4-[2-methyl-3-(2-methylpropyl)-3H-imidazo[4,5-b]pyridin-5-yl]pyridine-2,6-diamine]
- IC50 [1]: 0.01 µM
- IC50 (DYRK1B): 0.002 µM
- IC50 (CDK9): 1.78 µM
- IC50 (DYRK1A [2]): 0.009 µM
- IC50 (DYRK1A [3]): 0.07 µM

Compound: Cc1nc2ccc(-c3cc(N)nc(N)c3)nc2n1CC1CCOC1 (stereo not drawn) [Example 41, 4-[2-methyl-3-(tetrahydrofuran-3-ylmethyl)-3H-imidazo[4,5-b]pyridin-5-yl]pyridine-2,6-diamine]
- IC50 [1]: 0.011 µM
- IC50 (DYRK1B): 0.011 µM
- IC50 (CDK9): 2.71 µM
- IC50 (DYRK1A [2]): 0.029 µM
- IC50 (DYRK1A [3]): 0.131 µM

Compound: Cc1nc2ccc(-c3cc(N)nc(N)c3)nc2n1CCc1ccc(Cl)c(Cl)c1 [Example 58, 4-{3-[2-(3,4-dichlorophenyl)ethyl]-2-methyl-3H-imidazo[4,5-b]pyridin-5-yl}pyridine-2,6-diamine]
- IC50 [1]: 0.013 µM
- IC50 (DYRK1B): 0.013 µM
- IC50 (CDK9): > 10 µM
- IC50 (DYRK1A [2]): 0.003 µM
- IC50 (DYRK1A [3]): 0.08 µM

Compound: Cc1nc2ccc(-c3cc(N)nc(N)c3)nc2n1CCc1ccc(Cl)cc1Cl [Example 59, 4-{3-[2-(2,4-dichlorophenyl)ethyl]-2-methyl-3H-imidazo[4,5-b]pyridin-5-yl}pyridine-2,6-diamine]
- IC50 [1]: 0.021 µM
- IC50 (DYRK1B): 0.003 µM
- IC50 (CDK9): > 10 µM
- IC50 (DYRK1A [2]): 0.002 µM

Compound: Cc1nc2ccc(-c3cc(N)nc(N)c3)nc2[nH]1 [Example 61, 4-(2-methyl-3H-imidazo[4,5-b]pyridin-5-yl)pyridine-2,6-diamine]
- IC50 [1]: 0.009 µM
- IC50 (DYRK1B): 0.004 µM
- IC50 (CDK9): > 10 µM
- IC50 (DYRK1A [2]): 0.002 µM
- IC50 (DYRK1A [3]): 0.155 µM

Compound: Cc1ccccc1CCn1c(C)nc2ccc(-c3cc(N)nc(N)c3)nc21 [Example 63, 4-{2-methyl-3-[2-(2-methylphenyl)ethyl]-3H-imidazo[4,5-b]pyridin-5-yl}pyridine-2,6-diamine]
- IC50 [1]: 0.008 µM
- IC50 (DYRK1B): 0.007 µM
- IC50 (CDK9): > 10 µM
- IC50 (DYRK1A [2]): 0.003 µM
- IC50 (DYRK1A [3]): 0.024 µM

Compound: CCCC(C)n1c(C)nc2ccc(-c3cc(N)nc(N)c3)nc21 (stereo not drawn) [Example 64, 4-[2-methyl-3-(pentan-2-yl)-3H-imidazo[4,5-b]pyridin-5-yl]pyridine-2,6-diamine]
- IC50 [1]: 0.026 µM
- IC50 (DYRK1B): 0.03 µM
- IC50 (CDK9): > 10 µM
- IC50 (DYRK1A [2]): 0.009 µM

Compound: Cc1nc2ccc(-c3cc(N)nc(N)c3)nc2n1C1CCSCC1 [Example 66, 4-[2-methyl-3-(tetrahydro-2H-thiopyran-4-yl)-3H-imidazo[4,5-b]pyridin-5-yl]pyridine-2,6-diamine]
- IC50 [1]: 0.009 µM
- IC50 (DYRK1B): 0.012 µM
- IC50 (CDK9): 0.365 µM
- IC50 (DYRK1A [2]): 0.005 µM
- IC50 (DYRK1A [3]): 0.072 µM

Compound: CCC(CC)n1c(C)nc2ccc(-c3cc(N)nc(N)c3)nc21 [Example 68, 4-[2-methyl-3-(pentan-3-yl)-3H-imidazo[4,5-b]pyridin-5-yl]pyridine-2,6-diamine]
- IC50 [1]: 0.193 µM
- IC50 (DYRK1B): 0.132 µM
- IC50 (CDK9): > 10 µM
- IC50 (DYRK1A [2]): 0.029 µM

Compound: Cc1nc2ccc(-c3cc(N)nc(N)c3)nc2n1[C@H](C)c1ccnc(F)c1 [Example 149, 4-{3-[(1R)-1-(2-fluoropyridin-4-yl)ethyl]-2-methyl-3H-imidazo[4,5-b]pyridin-5-yl}pyridine-2,6-diamine]
- IC50 [1]: 0.026 µM
- IC50 (DYRK1B): 0.004 µM
- IC50 (CDK9): > 10 µM
- IC50 (DYRK1A [2]): 0.01 µM
- IC50 (DYRK1A [3]): 0.33 µM

Compound: COCCCn1c(C)nc2ccc(-c3cc(N)nc(N)c3)nc21 [Example 150, 4-[3-(3-methoxypropyl)-2-methyl-3H-imidazo[4,5-b]pyridin-5-yl]pyridine-2,6-diamine]
- IC50 [1]: 0.019 µM
- IC50 (DYRK1B): 0.014 µM
- IC50 (CDK9): 3.03 µM
- IC50 (DYRK1A [2]): 0.006 µM
- IC50 (DYRK1A [3]): 0.28 µM

Compound: COc1cccc(CCn2c(C)nc3ccc(-c4cc(N)nc(N)c4)nc32)c1 [Example 152, 4-{3-[2-(3-methoxyphenyl)ethyl]-2-methyl-3H-imidazo[4,5-b]pyridin-5-yl}pyridine-2,6-diamine]
- IC50 [1]: 0.012 µM
- IC50 (DYRK1B): 0.007 µM
- IC50 (CDK9): > 10 µM
- IC50 (DYRK1A [2]): 0.002 µM
- IC50 (DYRK1A [3]): 0.22 µM

Compound: CCCCn1c(C)nc2ccc(-c3cc(N)nc(NCc4ccccc4)c3)nc21 [Example 231, N-benzyl-4-(3-butyl-2-methyl-3H-imidazo[4,5-b]pyridin-5-yl)pyridine-2,6-diamine]
- IC50 [1]: 0.046 µM
- IC50 (DYRK1B): 0.003 µM
- IC50 (CDK9): > 10 µM
- IC50 (DYRK1A [2]): 0.011 µM

Compound: CCCCn1c(C)nc2ccc(-c3cc(N)nc(NC(=O)Cc4ccccc4)c3)nc21 [Example 235, N-[6-amino-4-(3-butyl-2-methyl-3H-imidazo[4,5-b]pyridin-5-yl)pyridin-2-yl]-2-phenylacetamide]
- IC50 [1]: 0.207 µM
- IC50 (DYRK1B): 0.091 µM
- IC50 (CDK9): > 10 µM
- IC50 (DYRK1A [2]): 0.013 µM

Compound: Cc1nc2ccc(-c3ccnc(N)c3)nc2n1CCC1CCCCC1 [Example 237, 4-[3-(2-cyclohexylethyl)-2-methyl-3H-imidazo[4,5-b]pyridin-5-yl]pyridin-2-amine]
- IC50 [1]: 0.045 µM
- IC50 (DYRK1B): 0.005 µM
- IC50 (CDK9): 0.718 µM
- IC50 (DYRK1A [2]): 0.005 µM
